Data taken from US20050282889A1, “Intracorporeal medicaments for photodynamic treatment of disease” (priority 1996, published 2005).

Tests used:
[1] = Retention of agent after intratumoral or peritumoral injection; details: mouse, in vivo
Method: Initially, tumor cell suspensions (e.g. melanoma, breast tumor, liver tumor, renal carcinoma, gall bladder tumor or prostate tumor) were injected subcutaneously into the flanks of nude mice resulting in formation of primary tumors, within a few weeks, at the injection site having a volume of approximately 0.1 cm^3 to 0.5 cm^3.

[2] = tested on: procaryotic or eucaryotic cell cultures; assay: Dark and light cytotoxicity in cell cultures; type: cell-based; details: concentrations equivalent to or greater than 100 mg/kg
Excerpt: Further, the inventors of the present invention have shown that these agents are readily cleared from healthy tissues in a matter of several hours and are known to be rapidly excreted in bile, urine and feces, without doing damage to those healthy tissues while it was there.

BNL/SV40 Liver Cell = assay: Intratumoral injection plus light, murine tumor model; type: in vivo; details: i.t. approx. 30 μL 10% solution, tumor 8 × 10 × 5 mm, 50 J/cm^2 532 nm
[3] = tested on: antibiotic resistant Staphylococcus aureus; assay: Photodynamic eradication of microbes; type: cell-based; details: aqueous solution approximately 1 to 10 micromolar; green light 500-600 nm
[4] = tested on: Human Breast Adenocarcinoma (MCF-7); assay: Intratumoral injection plus light, murine tumor model; type: in vivo; details: i.t. approx. 30 μL 10% solution, tumor 3 × 4 × 4 mm, 100 J/cm^2 532 nm
[5] = tested on: tumor cell suspensions (e.g. melanoma, breast tumor, liver tumor, renal carcinoma, gall bladder tumor or prostate tumor); assay: Photodynamic treatment of subcutaneous primary tumors in nude mice; type: in vivo
metastatic breast tumor = assay: Intratumoral Rose Bengal plus green light; type: in vivo; details: approximately 10% W/V solution i.t.; green light 500-600 nm
[6] = Absorbance properties of halogenated xanthenes (λmax, α); type: physicochemical
Excerpt: Certain general properties of this class of agents are discussed in further detail in U.S. Ser. No. 09/130,041, filed on Aug. 6, 1998, U.S. Ser. No. 09/184,388, filed on Nov. 2, 1998, and U.S. Ser. No. 09/216,787, filed on Dec. 21, 1998, which are herein incorporated by reference in their entirety.

Renal Adenocarcinoma [7] = assay: Intratumoral injection plus light, murine tumor model; type: in vivo; details: for No. Tumors Cured: 4 treated
prostate tumor = assay: Intratumoral Rose Bengal plus green light; type: in vivo; details: approximately 10% W/V solution i.t.; green light 500-600 nm
[8] = Photochemical quantum yields (triplet, singlet oxygen); type: physicochemical
renal adenocarcinoma [9] = assay: Per oesophageal Rose Bengal plus 532 nm light, murine renal adenocarcinoma tumor model; type: in vivo, Balb C Nude (nu/nu) mice
lung tumor = assay: Intratumoral Rose Bengal plus green light; type: in vivo; details: approximately 10% W/V solution i.t.; green light 500-600 nm
cutaneous lipocytes = assay: Systemic administration to obese mice: accumulation in and photodynamic destruction of cutaneous lipocytes; type: in vivo, obese laboratory mice
Excerpt: For example, Rose Bengal's relatively large partition coefficient is indicative of a preference for accumulation in lipophilic tissue, such as cutaneous lipocytes.

[10] = Serum level after per oesophageal administration; type: in vivo; details: approximately 10% W/V solution p.o.
various yeasts = assay: Photodynamic eradication of microbes; type: cell-based; details: aqueous solution approximately 1 to 10 micromolar; green light 500-600 nm
Escherichia coli = assay: Photodynamic eradication of microbes; type: cell-based; details: aqueous solution approximately 1 to 10 micromolar; green light 500-600 nm
esophageal tissue = assay: Per oesophageal Rose Bengal plus green light on esophageal tissue; type: in vivo, canines; details: approximately 1.0% W/V solution p.o.; green light 500-600 nm
cutaneous tumors = assay: Per oesophageal Rose Bengal plus green light, mice with cutaneous tumors; type: in vivo; details: approximately 10% W/V solution p.o.; green light 500-600 nm
thyroid tumor = assay: Intratumoral Rose Bengal plus green light; type: in vivo; details: approximately 10% W/V solution i.t.; green light 500-600 nm
[11] = No Light control, 0 J/cm^2, i.t. 10% solution, tumor 2 × 3 × 3 mm
[12] = i.t. approx. 30 μL 10% solution, tumor 2 × 3 × 3 mm, 100 J/cm^2 532 nm
[13] = i.t. approx. 30 μL 10% solution, tumor 5 × 8 × 8 mm, 100 J/cm^2 532 nm

Injected dose remaining in the tumor [1]: more than 75% | α [6]: 100000 L/cm/mol | λmax (nm) EtOH ([6]; EtOH): 557 nm | λmax (nm) H2O ([6]; H2O): 547 nm | λmax (nm) MeOH ([6]; MeOH): 556 nm | φ (singlet oxygen) EtOH ([8]; EtOH): 0.75 | φ (singlet oxygen) H2O ([8]; H2O): 0.86 | φ (singlet oxygen) MeOH ([8]; MeOH): 0.76 | φ (triplet) MeOH ([8]; MeOH): 0.76 | Tissue accumulation after systemic administration (cutaneous lipocytes; aqueous solution i.p. or p.o., cutaneous fat deposits of obese mice): highly selective accumulation | Serum levels of Rose Bengal [10]: transient elevation of serum levels
Structure (SMILES): O=C1OC2(c3cc(I)c(O)c(I)c3Oc3c2cc(I)c(O)c3I)c2c(Cl)c(Cl)c(Cl)c(Cl)c21 [Rose Bengal, 4,5,6,7-tetrachloro-2′,4′,5′,7′-Tetraiodofluorescein]
Tissue localization after i.t. administration [1]: persistent accumulation and retention of Rose Bengal uniformly throughout the tumor volume | Light cytotoxicity: effect on cell cultures ([2]; light between about 500 nm and 600 nm): immediate and complete kill | Dark cytotoxicity: effect on viability of cultures ([2]; no illumination): no measurable effect on the viability | Cure Rate (BNL/SV40 Liver Cell): 25% | No. Tumors Cured (BNL/SV40 Liver Cell; 8 treated, reoccurrence at 2-3 weeks): 2 | Eradication of microbes [3]: substantial or complete eradication | Cure Rate [4]: 100% | No. Tumors Cured ([4]; 2 treated): 2 | Tumor response after p.o. administration and illumination ([5]; 10-30 μL of 10% solution (1-3 mg) p.o., 532 nm, 50-200 J/cm^2, 3-48 hours post administration): selective destruction of tumor tissue with no substantive effect in healthy surrounding tissue | Tumor response after intratumoral injection and illumination ([5]; i.t., similar formulation, light at 532 nm): selective tumor destruction | Tumor response (metastatic breast tumor): controlled, localized photodynamic eradication | Cure Rate (Renal Adenocarcinoma [7]; [11]): 0% | No. Tumors Cured (Renal Adenocarcinoma [7]; [11]): 0 | Cure Rate (Renal Adenocarcinoma [7]; [12]): 100% | No. Tumors Cured (Renal Adenocarcinoma [7]; [12]): 4 | Cure Rate (Renal Adenocarcinoma [7]; [13]): 50% | No. Tumors Cured (Renal Adenocarcinoma [7]; [13]): 2 | Tumor response (prostate tumor): controlled, localized photodynamic eradication | Cure Rate (renal adenocarcinoma [9]; 10% solution p.o. approx. 50 mg/kg, 100 J/cm^2 532 nm, latency 3 hr): 60% (3/5) | No. Tumors With Positive Response (renal adenocarcinoma [9]; 10% solution p.o. approx. 50 mg/kg, 100 J/cm^2 532 nm, latency 3 hr, 5 tumors treated, eschar at tumor site 24 h after illumination): 3 | Cure Rate (renal adenocarcinoma [9]; 10% solution p.o. approx. 50 mg/kg, 100 J/cm^2 532 nm, latency 20 hr): 78% (7/9) | No. Tumors With Positive Response (renal adenocarcinoma [9]; 10% solution p.o. approx. 50 mg/kg, 100 J/cm^2 532 nm, latency 20 hr, 9 tumors treated): 7 | Cure Rate (renal adenocarcinoma [9]; No Light control, 0 J/cm^2, p.o. approx. 50 mg/kg): 0% (0/2) | No. Tumors With Positive Response (renal adenocarcinoma [9]; No Light control, 0 J/cm^2, p.o. approx. 50 mg/kg, 2 tumors treated): 0 | Damage in peritumoral tissues (renal adenocarcinoma [9]; p.o. approx. 50 mg/kg, tumor and peritumoral area illuminated, 100 J/cm^2 532 nm): eschar formation selectively at the tumor site. No damage was noted in peritumoral tissues. “No Light” and | Tumor response (lung tumor): controlled, localized photodynamic eradication | Photodynamic effect on lipocytes (cutaneous lipocytes; illumination of skin at approximately 532 nm after systemic administration): selective photodynamic destruction of such lipocytes with no effect in overlying skin or underlying muscle tissue | Eradication of microbes (various yeasts): substantial or complete eradication | Eradication of microbes (Escherichia coli): substantial or complete eradication | Tissue response in illuminated region (esophageal tissue): controlled, localized photodynamic destruction of tissues in the treated region | Tumor response (cutaneous tumors): substantial or complete photodynamic eradication | Tumor response (thyroid tumor): controlled, localized photodynamic eradication
